Laboratory results as given in patent publication US20200407398A1, “Short Proline-Rich Lipopeptide Potentiates Minocycline and Rifampicin Against Multidrug-and Extensively Drug-Resistant Pseudomonas Aeruginosa” (priority 2018, published 2020).
Peptide text beside a SMILES is read from it. * marks the point of attachment. Palmitoyl = CCCCCCCCCCCCCCCC(=O)*

Experiments:
[1] = system: A. baumannii CAN-ICU 63169; assay type: cell-based
How it was run: (§1)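 Read-out is visible turbidity, confirmed at 590 nm, with MIC taken as the lowest inhibitory concentration. Bacteria at 5×10^5 CFU/mL were exposed to 2-fold dilutions in Mueller-Hinton broth for 18 hours at 37° C., per CLSI guidelines.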

E. coli ATCC 25922 = assay type: cell-based
How it was run: as §1

[2] = system: E. coli CAN-ICU 61714 (gentamicin-resistant); assay type: cell-based
How it was run: as §1

[3] = system: E. coli CAN-ICU 63074 (amikacin-intermediate resistant); assay type: cell-based
How it was run: as §1

[4] = system: E. coli CANWARD-2011 97615 (gentamicin-, tobramycin-, ciprofloxacin-resistant) aac(3′)iia; assay type: cell-based
How it was run: as §1

E. faecalis ATCC 29212 = assay type: cell-based
How it was run: as §1

E. faecium ATCC 27270 = assay type: cell-based
How it was run: as §1

K. pneumoniae ATCC 13883 = assay type: cell-based
How it was run: as §1

P. aeruginosa ATCC 27853 = assay type: cell-based
How it was run: as §1

[5] = system: P. aeruginosa CAN-ICU 62308 (gentamicin-resistant); assay type: cell-based
How it was run: as §1

[6] = system: P. aeruginosa CANWARD-2011 96846 (gentamicin-, tobramycin-resistant); assay type: cell-based
How it was run: as §1

[7] = system: P. aeruginosa wild-type PAO1; assay type: cell-based
How it was run: as §1

S. aureus ATCC 29213 = assay type: cell-based
How it was run: as §1

[8] = system: S. maltophilia CAN-ICU 62584; assay type: cell-based
How it was run: as §1

[9] = system: methicillin-resistant S. aureus ATCC 33592; assay type: cell-based
How it was run: as §1

[10] = system: methicillin-resistant S. epidermidis CAN-ICU 61589 (ceftazidime-resistant); assay type: cell-based; conditions: methicillin-resistant CAN-ICU 61589 (ceftazidime-resistant)
How it was run: as §1

[11] = system: methicillin-susceptible Staphylococcus epidermidis CANWARD-2008 81388; assay type: cell-based; conditions: methicillin-susceptible CANWARD-2008 81388
How it was run: as §1

pig erythrocytes = assay type: cell-based
How it was run: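 Washed pig erythrocytes in PBS were mixed with 2-fold serial dilutions of peptide and incubated for 1 h at 37° C. Released hemoglobin in the supernatant was read at 570 nm, with PBS and 0.1% Triton X-100 as controls. MHC was the minimum concentration giving 5% hemolysis.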

Gram-positive bacteria = assay: Microbroth dilution MIC, range over panel; assay type: cell-based; conditions: against Gram-positive bacteria of the panel
Procedure: The synthesized SPRLPs were evaluated for their antibacterial potency against a panel of Gram-positive and Gram-negative bacteria (Tables 2 & 3). Some of the included pathogens were collected from patients visiting or admitted to participating Canadian hospitals through the CAN-ICU (27) and CANWARD (28) national surveillance studies. Antibacterial activity was assessed using minimum inhibitory concentration (MIC) against various clinical pathogens.
(§2) Microbroth dilution susceptibility test following the Clinical and Laboratory Standards Institute (CLSI) guidelines (32) was performed to assess the in vitro antibacterial activity of SPRLPs. Overnight grown bacterial cultures were diluted in saline to achieve a 0.5 McFarland turbidity, followed by 1:50 dilution in Mueller-Hinton broth (MHB) for inoculation to a final concentration of 5×10^5 colony forming units/mL. The assay was done on a 96-well plate to which the agents of interest were 2-fold serially diluted in MHB and incubated with equal volumes of inoculum at 37° C. for 18 hours. MIC was determined as the lowest concentration to inhibit visible bacterial growth in form of turbidity, which was confirmed using EMax Plus microplate reader (Molecular Devices, USA) at a wavelength of 590 nm. The well containing MHB broth with or without bacterial cells was used as positive or negative control, respectively.

[12] = system: P. aeruginosa PAO1 (wild-type); assay: microbe, parasite or virus in culture; conditions: Pseudomonas aeruginosa, PAO1, read-out: MIC (agent alone)
Procedure: (§3) We evaluated the activity of SPRLPs in combination with fifteen clinically-used antibiotics against P. aeruginosa. Antibiotics tested included fluoroquinolones (moxifloxacin, ciprofloxacin and levofloxacin), aminoglycosides (gentamicin, tobramycin and amikacin), cephalosporins (ceftazidime and cefotaxime), carbapenems (meropenem and doripenem), aztreonam, rifampicin, minocycline, colistin and fosfomycin. The SPRLPs were screened initially at a fixed concentration of 8 μg/mL (5 μM) in combination with antibiotics against wild-type P. aeruginosa PAO1. We assessed potentiation by at least a four-fold absolute MIC reduction of the antibiotic, after which synergism was further validated by a conventional checkerboard assay. A fractional inhibitory concentration (FIC) index of ≤0.5, 0.5<x≤4 or >4 was interpreted as synergistic, indifferent or antagonistic interaction, respectively (31). FIC index was obtained by adding the FIC values of the antibiotic and the SPRLP adjuvant. FIC of antibiotics was calculated by dividing the MIC of the antibiotic in the presence of the adjuvant by the MIC of the antibiotic alone. Similarly, the FIC of adjuvant was calculated via dividing the MIC of the adjuvant in the presence of the antibiotic by the MIC of the adjuvant alone.
as §2
(§4) The assay was performed on a 96-well plate, to which the agents of interest was 2-fold serially diluted in working MHB. Prior to serial dilution, SPRLP was added to the working MHB media so that a fixed final concentration of 8 μg/mL (5 μM) SPRLP per well was achieved. To ensure that the assay was working, the MIC determination test of the studied antibiotic (without SPRLP) was included on the same plate. Similar MIC results between the assay comparator and an independent MIC determination test (on a different plate) ensured validity of the synergy test. Overnight grown bacterial cultures were diluted in saline to 0.5 McFarland turbidity, followed by 1:50 dilution in MHB (without SPRLP) and inoculation into each well to a final concentration of approximately 5×10^5 colony forming units/mL. Wells containing only MHB (without SPRLP) with or without bacterial cells were used as positive or negative control, respectively. The plate was then incubated at 37° C. for 18 hours and examined for visible turbidity, to which was confirmed using EMax Plus microplate reader (Molecular Devices, USA) at a wavelength of 590 nm. A 4-fold or more MIC reduction of antibiotic in the presence of 8 μg/mL (5 μM) SPRLP denoted a positive synergy result and was further validated by a checkerboard assay.
The assay was done on a 96-well plate as previously described (40, 41). The agent of interest was 2-fold serially diluted along the x-axis, while the adjuvant was 2-fold serially diluted along the y-axis to create a matrix in which each well consist of a combination of both at different concentrations.

[13] = system: P. aeruginosa 100036 (MDR/XDR); assay: microbe, parasite or virus in culture; conditions: Pseudomonas aeruginosa, read-out: MIC (agent alone)
Procedure: as §3
(§5) Isolates used in this study were either obtained from the American Type Culture Collection (ATCC), the Canadian National Intensive Care Unit (CAN-ICU) surveillance study (27) or the Canadian Ward Surveillance (CANWARD) study (28). Clinical isolates belonging to the CAN-ICU and CANWARD studies were recovered from patients suffering a presumed infectious disease entering or admitted in a participating medical center across Canada during the time of study. MDR P. aeruginosa strains in this study refer to those that are resistant to aminoglycosides, fluoroquinolones, cephalosporins, and carbapenems while XDR strains are those that are resistant to aminoglycosides, fluoroquinolones, cephalosporins, carbapenems, aztreonam and penicillin+β-lactamase inhibitor combination (39, 40).
as §2
as §4, with “respectively.” for “respectively. The plate was then incubated at 37° C. for 18 hours and examined for visible turbidity, to which was confirmed using EMax Plus microplate reader (Molecular Devices, USA) at a wavelength of 590 nm. A 4-fold or more MIC reduction of antibiotic in the presence of 8 μg/mL (5 μM) SPRLP denoted a positive synergy result and was further validated by a checkerboard assay.”

[14] = system: P. aeruginosa 101243 (colistin-resistant, MDR/XDR); assay: microbe, parasite or virus in culture; conditions: Pseudomonas aeruginosa, read-out: MIC (agent alone), P. aeruginosa 101243 (colistin-resistant); antibiotic or lipopeptide alone
Procedure: as §3, §5, §2
as §4, with “respectively.” for “respectively. The plate was then incubated at 37° C. for 18 hours and examined for visible turbidity, to which was confirmed using EMax Plus microplate reader (Molecular Devices, USA) at a wavelength of 590 nm. A 4-fold or more MIC reduction of antibiotic in the presence of 8 μg/mL (5 μM) SPRLP denoted a positive synergy result and was further validated by a checkerboard assay.”

[15] = system: P. aeruginosa 101885 (MDR/XDR); assay: microbe, parasite or virus in culture; conditions: Pseudomonas aeruginosa, read-out: MIC (agent alone)
Procedure: as §3, §5, §2
as §4, with “respectively.” for “respectively. The plate was then incubated at 37° C. for 18 hours and examined for visible turbidity, to which was confirmed using EMax Plus microplate reader (Molecular Devices, USA) at a wavelength of 590 nm. A 4-fold or more MIC reduction of antibiotic in the presence of 8 μg/mL (5 μM) SPRLP denoted a positive synergy result and was further validated by a checkerboard assay.”

[16] = system: P. aeruginosa 259-96918 (MDR/XDR); assay: microbe, parasite or virus in culture; conditions: Pseudomonas aeruginosa, read-out: MIC (agent alone)
Procedure: as §3, §5, §2
as §4, with “respectively.” for “respectively. The plate was then incubated at 37° C. for 18 hours and examined for visible turbidity, to which was confirmed using EMax Plus microplate reader (Molecular Devices, USA) at a wavelength of 590 nm. A 4-fold or more MIC reduction of antibiotic in the presence of 8 μg/mL (5 μM) SPRLP denoted a positive synergy result and was further validated by a checkerboard assay.”

[17] = system: P. aeruginosa 260-97103 (MDR/XDR); assay: microbe, parasite or virus in culture; conditions: Pseudomonas aeruginosa, read-out: MIC (agent alone)
Procedure: as §3, §5, §2
as §4, with “respectively.” for “respectively. The plate was then incubated at 37° C. for 18 hours and examined for visible turbidity, to which was confirmed using EMax Plus microplate reader (Molecular Devices, USA) at a wavelength of 590 nm. A 4-fold or more MIC reduction of antibiotic in the presence of 8 μg/mL (5 μM) SPRLP denoted a positive synergy result and was further validated by a checkerboard assay.”

[18] = system: P. aeruginosa 262-101856 (MDR/XDR); assay: microbe, parasite or virus in culture; conditions: Pseudomonas aeruginosa, read-out: MIC (agent alone)
Procedure: as §3, §5, §2
as §4, with “respectively.” for “respectively. The plate was then incubated at 37° C. for 18 hours and examined for visible turbidity, to which was confirmed using EMax Plus microplate reader (Molecular Devices, USA) at a wavelength of 590 nm. A 4-fold or more MIC reduction of antibiotic in the presence of 8 μg/mL (5 μM) SPRLP denoted a positive synergy result and was further validated by a checkerboard assay.”

[19] = system: P. aeruginosa 264-104354 (MDR/XDR); assay: microbe, parasite or virus in culture; conditions: Pseudomonas aeruginosa, read-out: MIC (agent alone)
Procedure: as §3, §5, §2
as §4, with “respectively.” for “respectively. The plate was then incubated at 37° C. for 18 hours and examined for visible turbidity, to which was confirmed using EMax Plus microplate reader (Molecular Devices, USA) at a wavelength of 590 nm. A 4-fold or more MIC reduction of antibiotic in the presence of 8 μg/mL (5 μM) SPRLP denoted a positive synergy result and was further validated by a checkerboard assay.”

[20] = system: P. aeruginosa 91433 (colistin-resistant, MDR/XDR); assay: microbe, parasite or virus in culture; conditions: Pseudomonas aeruginosa, read-out: MIC (agent alone)
Procedure: as §3, §5, §2
as §4, with “respectively.” for “respectively. The plate was then incubated at 37° C. for 18 hours and examined for visible turbidity, to which was confirmed using EMax Plus microplate reader (Molecular Devices, USA) at a wavelength of 590 nm. A 4-fold or more MIC reduction of antibiotic in the presence of 8 μg/mL (5 μM) SPRLP denoted a positive synergy result and was further validated by a checkerboard assay.”

CCCCCCCCCCCCCCCC(=O)N1CCC[C@H]1C(=O)N[C@@H](CCCNC(=N)N)C(=O)N1CCC[C@H]1C(=O)NCC(=O)N1CCC[C@H]1C(=O)N[C@@H](CCCNC(=N)N)C(=O)N1CCC[C@H]1C(N)=O [Compound C16-PGP, CH3(CH2)14CO-PRPGPRP-NH2] (Palmitoyl-PRPGPRP-NH2)
MIC [1]: 32 µg/mL
MIC (E. coli ATCC 25922): 32 µg/mL
MIC [2]: 32 µg/mL
MIC [3]: 32 µg/mL
MIC [4]: 32 µg/mL
MIC (E. faecalis ATCC 29212): 16 µg/mL
MIC (E. faecium ATCC 27270): 16 µg/mL
MIC (K. pneumoniae ATCC 13883): 64 µg/mL
MIC (P. aeruginosa ATCC 27853): 128 µg/mL
MIC [5]: 128 µg/mL
MIC [6]: 128 µg/mL
MIC [7]: 64 µg/mL
MIC (S. aureus ATCC 29213): 32 µg/mL
MIC [8]: 128 µg/mL
MIC [9]: 32 µg/mL
MIC [10]: 16 µg/mL
MIC [11]: 8 µg/mL
MHC (minimum concentration that resulted in 5% red blood cell hemolysis) (pig erythrocytes): 16 µg/mL
MIC range (Gram-positive bacteria): 8 to 32 µg/mL

CO[C@H]1/C=C/O[C@@]2(C)Oc3c(C)c(O)c4c(O)c(c(/C=N/N5CCN(C)CC5)c(O)c4c3C2=O)NC(=O)/C(C)=C\C=C\[C@H](C)[C@H](O)[C@@H](C)[C@@H](O)[C@@H](C)[C@H](OC(C)=O)[C@@H]1C [rifampicin]
MIC [12]: 8 µg/mL
MIC [13]: 16 µg/mL
MIC [14]: 4 µg/mL
MIC [15]: 16 µg/mL
MIC [16]: 16 µg/mL
MIC [17]: 16 µg/mL
MIC [18]: 512 µg/mL
MIC [19]: 8 µg/mL
MIC [20]: 16 µg/mL
